# Values joined by “and” are separate entries in the source; they are usually repeats but may differ in a detail not shown here. Equal entries are not always repeated.
row,SMILES,melting point
1,"CC(=O)O[C@H]1O[C@@H](COC(=O)c2ccccc2)[C@H](OC(=O)c2ccccc2)[C@@H]1OC(=O)c1ccccc1 [1-o-acetyl-2,3,5-tri-o-benzoyl-beta-D-ribofuranose]",129 °C
2,CCCCCCCCCCCCCCCCCCS [1-octadecanethiol],32 °C
3,C=CCCCCCCCCCCCCCCCC [1-octadecene],18 °C
4,CCCCCCCCS [1-octanethiol],-49 °C
5,C=CCCCCCCCCCCCCC [1-pentadecene],-4 °C
6,C=CCCC [1-pentene],-162 °C
7,CCCCCN [1-pentylamine],-55 °C
8,C=CC [1-propene],-185 °C
9,CC(C)(C)N1CCNC1=O [1-tert-butyl-2-imidazolidinone],137 °C
10,C=CCCCCCCCCCCCC [1-tetradecene],-12 °C
11,CCCCCCCCCCCCCO [1-tridecanol],34 °C
12,C=CCCCCCCCCCCC [1-tridecene],-23 °C
13,CCCCCCCCCCCO [1-undecanol],16 °C and 14 °C
14,C#CCCCCCCCCC [1-undecyne],-25 °C
15,On1nnc2ccccc21 [1H-Benzotriazol-1-ol],159 °C
16,"CC1=C(C)C(C)N=N1 (stereo unspecified) [1H-pyrazole, 3,4,5-trimethyl-]",138 °C
17,"CSC1N=NC(N)=C1C#N (stereo unspecified) [1H-pyrazole-4-carbonitrile, 3-amino-5-(methylthio)-]",190 °C
18,c1ccc2[nH]nnc2c1 [1h-benzotriazole],98 °C
19,"CC(=O)N(C)c1ccc(Cl)cc1Cl [2',4'-dichloro-n-methylacetanilide]",87 °C
20,"COc1cc(/C=C/C(=O)c2ccccc2O)ccc1O [2',4-dihydroxy-3-methoxychalcone]",128 °C
21,"CC(=O)c1cc(Cl)ccc1Cl [2',5'-dichloroacetophenone]",12 °C
22,O=c1ccn([C@@H]2C[C@H](O)[C@@H](CO)O2)c(=O)[nH]1 [2'-Deoxyuridine],163 °C
23,CC(=O)Nc1cc(C)ccc1O [2'-hydroxy-5'-methylacetanilide],149 °C
24,"Nc1ccccc1CCc1ccccc1N [2,2'-Ethane-1,2-diyldianiline]",33 °C

row,SMILES,melting point
1,"Oc1ccc(Cl)cc1Cc1cc(Cl)ccc1O [2,2'-Methylenebis(4-chlorophenol)]",170 °C
2,"Oc1ccccc1-c1ccccc1O [2,2'-dihydroxybiphenyl]",109 °C
3,"O=C(C(=O)c1cccs1)c1cccs1 [2,2'-thenil]",83 °C
4,"OC(c1ccc(Cl)cc1)(c1ccc(Cl)cc1)C(Cl)(Cl)Cl [2,2,2-Trichloro-1,1-bis(4-chlorophenyl)ethanol]",78.5 °C
5,"NC(=O)C(Cl)(Cl)Cl [2,2,2-Trichloroacetamide]",142 °C
6,"CC(C)C(O)C(C)(C)C (stereo unspecified) [2,2,4-trimethyl-3-pentanol]",-11 °C
7,"OCC(c1ccccc1)c1ccccc1 [2,2-Diphenylethanol]",54.5 °C
8,"O=C(c1ccccc1)C(Cl)Cl [2,2-dichloroacetophenone]",21 °C
9,"CC(Br)C(C)(Br)Br (stereo unspecified) [2,3,3-tribromobutane]",2 °C
10,"OB(O)c1c(F)c(F)c(F)c(F)c1F [2,3,4,5,6-pentafluorobenzeneboronic acid]",253 °C
11,"O=C(c1ccccc1)c1c(F)c(F)c(F)c(F)c1F [2,3,4,5,6-pentafluorobenzophenone]",38 °C
12,"O=S(=O)(Cl)c1ccc(Cl)c(Cl)c1Cl [2,3,4-trichlorobenzenesulfonyl chloride]",63 °C
13,"O=Cc1ccc(O)c(O)c1O [2,3,4-trihydroxybenzaldehyde]",161 °C
14,"COc1ccc(B(O)O)c(OC)c1OC [2,3,4-trimethoxybenzeneboronic acid]",77 °C
15,"CC(C)C(C)C(C)C [2,3,4-trimethylpentane]",-109 °C
16,"O=[N+]([O-])c1c(Cl)c(Cl)cc(Cl)c1Cl [2,3,5,6-Tetrachloronitrobenzene]",99.5 °C
17,"O=C(O)CCc1c(F)c(F)nc(F)c1F [2,3,5,6-tetrafluoropyridine-4-propionic acid]",152 °C
18,"O=C(O)c1cc(I)cc(I)c1I [2,3,5-triiodobenzoic acid]",221 °C
19,"O=C(O)c1cc(F)nc(F)c1F [2,3,6-trifluoropyridine-4-carboxylic acid]",120 °C
20,"c1ccc2c(c1)Cc1cc3ccccc3cc1-2 [2,3-Benzofluorene Benzo[b]fluorene]",210 °C
21,"CC(C)C(C)C [2,3-Dimethylbutane]",-128 °C
22,"O=C(O)C(S)C(S)C(=O)O (stereo unspecified) [2,3-Disulfanylsuccinic acid]",197 °C
23,"c1ccc2c(c1)Cc1cc3ccccc3cc1-2 [2,3-benzofluorene]",210 °C
24,"Cc1cccc(N)c1N [2,3-diaminotoluene]",58 °C

row,SMILES,melting point
1,"O=S(=O)(Nc1cccc(Cl)c1Cl)c1ccccc1 [2,3-dichloro-1-phenylsulfonamidobenzene]",114 °C
2,"NC(=O)c1cccc(Cl)c1Cl [2,3-dichlorobenzamide]",167 °C
3,"O=[N+]([O-])c1cccc(Cl)c1Cl [2,3-dichloronitrobenzene]",62 °C
4,"Oc1cccc(Cl)c1Cl [2,3-dichlorophenol]",59 °C
5,"COc1cccc(/C=C/[N+](=O)[O-])c1OC [2,3-dimethoxy-beta-nitrostyrene]",81 °C
6,"COc1cccc(C=O)c1OC [2,3-dimethoxybenzaldehyde]",52 °C
7,"Cc1c(C)n(C#N)c2ccccc12 [2,3-dimethyl-1H-indole-1-carbonitrile]",97 °C
8,"Cc1c(C)n(C(N)=O)c2ccccc12 [2,3-dimethyl-1H-indole-1-carboxamide]",188 °C
9,"COc1cccc(C)c1C [2,3-dimethylanisole]",29 °C
10,"Cc1cccc(B(O)O)c1C [2,3-dimethylbenzeneboronic acid]",175 °C
11,"CC(C)C(C)C [2,3-dimethylbutane]",-129 °C
12,"Cc1c(C)c(C#N)c2ccccc2c1C#N [2,3-dimethylnaphthalene-1,4-dicarbonitrile]",263 °C
13,"Cc1cccc(O)c1C [2,3-dimethylphenol] [listing 1 of 2 here]",75 °C and 72.5 °C
14,"Cc1cccc(O)c1C [2,3-dimethylphenol] [listing 2 of 2 here]",72 °C
15,"Cc1nccnc1C [2,3-dimethylpyrazine]",-12 °C
16,"CC1(C)O[C@@H](CO)[C@H](CO)O1 [2,3-o-isopropylidene-l-threitol]",47 °C
17,"O=C(c1ccc(F)cc1)c1ccccc1F [2,4'-difluorobenzophenone]",23 °C
18,"C=C(C)CC(C)(C)C [2,4,4-Trimethylpent-1-ene]",-94 °C
19,"C=C(C)CC(C)(C)C [2,4,4-trimethyl-1-pentene]",-93 °C
20,"N#Cc1c(F)c(F)c(F)c(C#N)c1F [2,4,5,6-Tetrafluoroisophthalonitrile]",79 °C
21,"Cc1cc(Cl)c(Cl)cc1Cl [2,4,5-Trichlorotoluene]",82.4 °C
22,"Oc1cc(Cl)c(Cl)cc1Cl [2,4,5-trichlorophenol]",69 °C and 67 °C and 68 °C
23,"COc1cc(OC)c(OC)cc1C=O [2,4,5-trimethoxybenzaldehyde]",114 °C
